# Data reported in ChEMBL document CHEMBL1250518, “Nonsteroidal dissociated glucocorticoid agonists containing azaindoles as steroid A-ring mimetics” (J Med Chem, 2010).
# Experiments:
# [1] = molecular target: T1, Mineralocorticoid receptor (Homo sapiens, UniProt P08235); test: Binding affinity to mineralocorticoid receptor expressed in baculovirus-infected insect cells using tetramethylrhodamine labeled Dexamethasone by fluorescence polarization microplate assay
# T1 sequence (P08235 whole entry): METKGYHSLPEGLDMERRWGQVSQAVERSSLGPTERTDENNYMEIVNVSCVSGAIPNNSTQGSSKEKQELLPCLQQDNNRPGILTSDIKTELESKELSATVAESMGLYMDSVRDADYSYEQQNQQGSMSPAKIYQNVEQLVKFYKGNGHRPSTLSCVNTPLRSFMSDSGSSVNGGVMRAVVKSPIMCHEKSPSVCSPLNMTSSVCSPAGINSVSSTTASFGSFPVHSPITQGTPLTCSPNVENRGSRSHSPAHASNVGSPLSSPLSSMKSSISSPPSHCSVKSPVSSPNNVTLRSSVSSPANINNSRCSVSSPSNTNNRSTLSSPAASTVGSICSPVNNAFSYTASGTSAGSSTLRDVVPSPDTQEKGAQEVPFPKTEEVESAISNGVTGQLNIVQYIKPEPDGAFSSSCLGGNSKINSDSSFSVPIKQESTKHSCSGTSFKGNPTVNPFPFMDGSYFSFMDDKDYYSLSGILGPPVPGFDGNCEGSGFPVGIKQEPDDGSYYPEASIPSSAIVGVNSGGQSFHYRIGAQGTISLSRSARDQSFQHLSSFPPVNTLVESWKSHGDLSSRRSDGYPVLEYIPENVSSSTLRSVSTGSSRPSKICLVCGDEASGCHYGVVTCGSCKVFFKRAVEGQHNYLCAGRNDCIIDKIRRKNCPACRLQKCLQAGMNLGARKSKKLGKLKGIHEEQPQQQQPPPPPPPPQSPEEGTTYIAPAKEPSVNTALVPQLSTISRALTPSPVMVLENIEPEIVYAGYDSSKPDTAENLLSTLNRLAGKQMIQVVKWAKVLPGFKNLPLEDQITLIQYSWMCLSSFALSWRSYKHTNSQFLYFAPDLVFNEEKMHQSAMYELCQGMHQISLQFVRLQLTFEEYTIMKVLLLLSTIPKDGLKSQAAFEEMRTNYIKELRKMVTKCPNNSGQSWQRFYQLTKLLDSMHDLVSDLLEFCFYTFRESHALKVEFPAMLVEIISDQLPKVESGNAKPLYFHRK
# Glucocorticoid receptor [2] = molecular target: T2, Glucocorticoid receptor (Homo sapiens, UniProt P04150); test: Transrepression activity at glucocorticoid receptor in HFF assessed as inhibition of IL-1-induced IL-6 production after 18 to 24 hrs by ELISA; type: cell-based
# T2 sequence (P04150 whole entry): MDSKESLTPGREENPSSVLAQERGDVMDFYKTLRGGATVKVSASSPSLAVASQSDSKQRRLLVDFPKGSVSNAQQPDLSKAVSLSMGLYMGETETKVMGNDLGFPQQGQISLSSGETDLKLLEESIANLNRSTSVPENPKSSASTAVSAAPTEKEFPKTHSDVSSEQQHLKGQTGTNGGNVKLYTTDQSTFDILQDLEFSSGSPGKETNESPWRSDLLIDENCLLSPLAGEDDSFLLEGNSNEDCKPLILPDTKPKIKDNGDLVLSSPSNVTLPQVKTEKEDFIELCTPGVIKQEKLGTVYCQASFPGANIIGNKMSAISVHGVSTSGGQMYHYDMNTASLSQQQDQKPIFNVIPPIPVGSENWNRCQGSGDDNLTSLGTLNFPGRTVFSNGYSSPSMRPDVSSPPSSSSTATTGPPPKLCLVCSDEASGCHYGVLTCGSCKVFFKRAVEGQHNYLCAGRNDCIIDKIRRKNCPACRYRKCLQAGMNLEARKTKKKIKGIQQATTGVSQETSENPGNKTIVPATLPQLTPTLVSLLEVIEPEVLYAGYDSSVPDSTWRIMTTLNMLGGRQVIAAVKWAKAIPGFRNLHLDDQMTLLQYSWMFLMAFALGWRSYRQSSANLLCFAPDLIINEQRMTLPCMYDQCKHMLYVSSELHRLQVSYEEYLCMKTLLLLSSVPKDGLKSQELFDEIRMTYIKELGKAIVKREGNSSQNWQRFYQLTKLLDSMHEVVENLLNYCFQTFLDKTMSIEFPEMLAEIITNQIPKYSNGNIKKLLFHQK
# Glucocorticoid receptor [3] = molecular target: T2, Glucocorticoid receptor; test: Binding affinity to glucocorticoid receptor expressed in baculovirus-infected insect cells using tetramethylrhodamine labeled Dexamethasone by fluorescence polarization microplate assay
# Progesterone receptor = molecular target: T3, Progesterone receptor (Homo sapiens, UniProt P06401); test: Binding affinity to progesterone receptor expressed in baculovirus-infected insect cells using tetramethylrhodamine labeled RU-486 by fluorescence polarization microplate assay
# T3 sequence (P06401 whole entry): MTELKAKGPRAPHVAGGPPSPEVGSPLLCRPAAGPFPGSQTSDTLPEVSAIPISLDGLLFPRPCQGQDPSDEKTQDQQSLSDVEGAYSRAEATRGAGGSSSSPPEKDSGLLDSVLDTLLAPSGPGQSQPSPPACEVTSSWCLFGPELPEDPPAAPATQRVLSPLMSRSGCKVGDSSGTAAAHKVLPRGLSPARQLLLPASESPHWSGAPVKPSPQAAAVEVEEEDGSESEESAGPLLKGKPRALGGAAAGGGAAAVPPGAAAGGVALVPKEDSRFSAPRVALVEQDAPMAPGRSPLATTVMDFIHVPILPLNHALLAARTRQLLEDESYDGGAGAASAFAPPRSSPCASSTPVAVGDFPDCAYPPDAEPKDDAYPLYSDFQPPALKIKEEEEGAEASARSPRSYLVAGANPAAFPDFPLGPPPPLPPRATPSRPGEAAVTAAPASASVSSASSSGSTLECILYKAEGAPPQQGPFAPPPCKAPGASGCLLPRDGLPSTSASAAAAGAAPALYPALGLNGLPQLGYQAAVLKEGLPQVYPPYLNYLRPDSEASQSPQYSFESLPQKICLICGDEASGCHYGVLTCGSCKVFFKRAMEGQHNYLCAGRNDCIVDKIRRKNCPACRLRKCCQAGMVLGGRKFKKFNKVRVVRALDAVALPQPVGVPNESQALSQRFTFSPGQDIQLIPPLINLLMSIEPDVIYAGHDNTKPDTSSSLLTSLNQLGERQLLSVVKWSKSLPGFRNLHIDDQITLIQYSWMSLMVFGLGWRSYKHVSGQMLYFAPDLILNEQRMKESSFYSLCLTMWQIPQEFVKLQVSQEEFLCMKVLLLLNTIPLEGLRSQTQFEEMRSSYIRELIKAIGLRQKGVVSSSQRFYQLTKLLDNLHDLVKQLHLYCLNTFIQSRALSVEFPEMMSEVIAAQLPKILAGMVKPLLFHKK
# Glucocorticoid receptor [4] = molecular target: T2, Glucocorticoid receptor; test: Transactivation activity at glucocorticoid receptor in HFF assessed as induction of aromatase activity after 18 to 24 hrs by ELISA; type: cell-based
# Glucocorticoid receptor [5] = molecular target: T2, Glucocorticoid receptor; test: Transactivation activity at glucocorticoid receptor in human HeLa cells transfected with luciferase gene linked to MMTV promoter by luciferase assay; type: cell-based
IC50 [1] [nM],IC50 (Glucocorticoid receptor [2]) [nM],IC50 (Glucocorticoid receptor [3]) [nM],IC50 (Progesterone receptor) [nM],EC50 (Glucocorticoid receptor [4]) [nM],IC50 (Glucocorticoid receptor [5]) [nM],SMILES
910,> 2000,21,> 2000,–,–,COc1ccc(F)cc1C(C)(C)CC(O)(Cc1cc2cccnc2[nH]1)C(F)(F)F (stereo unspecified)
1050,> 2000,22,> 2000,–,–,COc1ccc(F)cc1C(C)(C)CC(O)(Cc1cc2ccncc2o1)C(F)(F)F (stereo unspecified)
> 2000,–,860,> 2000,–,–,COc1ccc(F)cc1C(C)(C)CC(O)(Cc1cc2cc[n+]([O-])cc2[nH]1)C(F)(F)F (stereo unspecified)
580,9.8,4.4,> 2000,–,–,COc1ccc(F)cc1C(C)(C)CC(O)(Cc1cc2ccncc2[nH]1)C(F)(F)F (stereo unspecified)
380,6.6,21,250,–,–,COc1ccc(F)cc1C(C)(C)CC(O)(Cc1cc2ccccc2[nH]1)C(F)(F)F (stereo unspecified)
> 2000,99,23,8,> 2000,–,CC(C)(CC(O)(Cc1cc2ccncc2[nH]1)C(F)(F)F)c1cccc(F)c1 (stereo unspecified)
> 2000,120,23,> 2000,–,–,COc1ccc(F)cc1C(C)(C)CC(O)(Cc1cc2ncccc2[nH]1)C(F)(F)F (stereo unspecified)
220,35,7.1,1300,–,–,COc1ccc(F)cc1C(C)(C)CC(O)(Cc1cc2ccncc2s1)C(F)(F)F (stereo unspecified)
58,2,1.4,600,35,22,COc1ccc(F)cc1C(C)(C)C[C@@](O)(Cc1cc2cnccc2[nH]1)C(F)(F)F
220,3,4.7,1900,45,56,CC(C)(C[C@@](O)(Cc1cc2cnccc2[nH]1)C(F)(F)F)c1cc(F)ccc1O
> 2000,430,1700,> 2000,–,–,COc1ccc(F)cc1C(C)(C)C[C@](O)(Cc1cc2ccncc2[nH]1)C(F)(F)F
320,8.2,7.3,> 2000,–,–,COc1ccc(F)cc1C(C)(C)CC(O)(Cc1cc2cnccc2[nH]1)C(F)(F)F (stereo unspecified)

# The next lines start with the compound.
SMILES,IC50 [1] [nM],IC50 (Glucocorticoid receptor [2]) [nM],IC50 (Glucocorticoid receptor [3]) [nM],IC50 (Progesterone receptor) [nM],EC50 (Glucocorticoid receptor [4]) [nM],IC50 (Glucocorticoid receptor [5]) [nM]
COc1ccc(F)cc1C(C)(C)CC(O)(Cn1ccc2ccncc21)C(F)(F)F (stereo unspecified),> 2000,–,1400,> 2000,–,–
COc1ccc(-c2cccnc2)cc1C(C)(C)CC(O)(Cc1cc2ccncc2[nH]1)C(F)(F)F (stereo unspecified),390,30,8,> 2000,> 2000,–
CC(C)(CC(O)(Cc1cc2ccncc2[nH]1)C(F)(F)F)c1cc(-c2ccccc2)ccc1O (stereo unspecified),160,15,11,1300,45,47
CC(C)(CC(O)(Cc1cc2ccncc2[nH]1)C(F)(F)F)c1cc(-c2cccnc2)ccc1O (stereo unspecified),230,23,6.6,> 2000,–,> 2000
CC(C)(CC(O)(Cc1cc2ccncc2[nH]1)C(F)(F)F)c1cc(Cl)cc2c1OCC2 (stereo unspecified),540,17,7,1210,120,> 2000
COc1ccc(-c2ccccc2)cc1C(C)(C)CC(O)(Cc1cc2ccncc2[nH]1)C(F)(F)F (stereo unspecified),480,40,12,1200,69,–
COc1ccc(-c2cncnc2)cc1C(C)(C)CC(O)(Cc1cc2ccncc2[nH]1)C(F)(F)F (stereo unspecified),> 2000,50,27,> 2000,–,–
CC(C)(CC(O)(Cc1cc2ccncc2[nH]1)C(F)(F)F)c1cccc2c1OCC2 (stereo unspecified),780,15,4.5,130,30,> 2000
COc1ccc(F)cc1C(C)(C)CC(O)(Cn1ccc2ncccc21)C(F)(F)F (stereo unspecified),48,2.8,2,200,–,–
CC(C)(CC(O)(Cc1cc2ccncc2[nH]1)C(F)(F)F)c1cc(F)cc2c1OCC2 (stereo unspecified),280,9.3,2.3,450,–,> 2000
CC(C)(CC(O)(Cc1cc2ccncc2[nH]1)C(F)(F)F)c1cc(-c2cncnc2)ccc1O (stereo unspecified),1700,21,19,> 2000,–,–
CC(C)(CC(O)(Cc1cc2ccncc2[nH]1)C(F)(F)F)c1ccccc1 (stereo unspecified),810,31,9.3,190,> 2000,> 2000
C[C@@H]1C[C@H]2[C@@H]3CCC4=CC(=O)C=C[C@]4(C)[C@@]3(F)[C@@H](O)C[C@]2(C)[C@@]1(O)C(=O)CO [DEXAMETHASONE],–,–,–,> 2000,–,–
COc1ccc(F)cc1C(C)(C)CC(O)(Cc1cc2ccccn2n1)C(F)(F)F (stereo unspecified),> 2000,> 2000,690,> 2000,–,–
